Results taken from patent US11214803B2, “Modulators of YAP1 expression” (Ionis Pharmaceuticals, Inc., priority 2019, dated 2022).
Marks after values point to notes of the source that are not given here. Strand notation (5' to 3'): a small letter for the sugar, then the base; units joined by * are phosphorothioate-linked, units joined directly phosphodiester-linked; [ ] holds rarer units or linkages, { } end groups; capitals alone tell only the bases. k = constrained ethyl (cEt); [5mC] = 5-methylcytosine; d = 2'-deoxy (DNA)

tested on: Yap1 mRNA; assay: Antisense inhibition of human Yap1 in A-431 cells by cEt gapmers, single dose (Example 2, RTS4814); type: cell-based; conditions: A-431 cells, 5,000 cells per well, free uptake, 2,000 nM modified oligonucleotide, approx. 48 hours, RTS4814, normalized to RIBOGREEN; Table 4; asterisk (*) = targets amplicon region of primer probe set
How it was run: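 Read-out is Yap1 mRNA as percent of untreated cells, by real-time RT-PCR (probe set RTS4814) normalized to total RNA via RIBOGREEN. Cells were A-431 dosed with 2,000 nM gapmer without transfection for approximately 48 hours.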

Substance	YAP1 (% UTC)
716469 (kG*kT*kT*dT*dG*d[5mC]*dT*d[5mC]*d[5mC]*dT*dT*dT*d[5mC]*k[5mC]*kA*kA; antisense) [Compound 716469]	25

same assay, conditions: Table 5; A-431 cells, 5,000 cells per well, free uptake, 2,000 nM modified oligonucleotide, approx. 48 hours; RTS4814; normalized to RIBOGREEN; Yap1 mRNA relative to untreated control cells

Substance	YAP1 (% UTC)
716461 (kA*kT*kA*dA*dA*d[5mC]*dT*dA*d[5mC]*dT*dA*dG*dT*k[5mC]*kA*kT; antisense) [Compound 716461]	123
716548 (kG*kA*kG*dT*dT*dT*d[5mC]*dA*dA*d[5mC]*dA*d[5mC]*dT*kG*kA*kT; antisense) [Compound 716548]	31
716401 (kA*kA*k[5mC]*dT*dG*dG*d[5mC]*dT*dA*d[5mC]*dG*d[5mC]*dA*kG*kG*kG; antisense) [Compound 716401]	92

same assay, conditions: Table 6; A-431 cells, 5,000 cells per well, free uptake, 2,000 nM modified oligonucleotide, approx. 48 hours; RTS4814; normalized to RIBOGREEN; Yap1 mRNA relative to untreated control cells

Substance	YAP1 (% UTC)
716396 (k[5mC]*kA*kG*dT*dT*d[5mC]*dT*dT*dG*d[5mC]*dT*dG*dT*kT*kT*k[5mC]; antisense) [Compound 716396]	123
716390 (kT*k[5mC]*kT*d[5mC]*dT*dG*dG*dT*dT*d[5mC]*dA*dT*dG*kG*k[5mC]*kA; antisense) [Compound 716390]	66
716381 (kT*kG*kT*d[5mC]*dT*dG*dA*dT*d[5mC]*dG*dA*dT*dG*kT*kG*kA; antisense) [Compound 716381]	35
716534 (antisense kG*kA*kT*dT*dA*dT*dA*dA*dA*dA*dT*dT*dG*kG*kT*kT) [Compound 716534]	90
716348 (kA*k[5mC]*kG*dG*dA*dG*dG*d[5mC]*d[5mC]*dG*dG*dA*d[5mC]*kA*kG*k[5mC]; antisense) [Compound 716348]	107

same assay, conditions: Table 18; A-431 cells, 5,000 cells per well, free uptake, 2,000 nM modified oligonucleotide, approx. 48 hours; RTS4814; normalized to RIBOGREEN; Yap1 mRNA as percent of untreated control

Substance	YAP1 (% UTC)
1074468 (k[5mC]*k[5mC]*kA*d[5mC]*d[5mC]*dG*dA*d[5mC]*d[5mC]*d[5mC]*dT*dG*d[5mC]*k[5mC]*kA*kA; antisense) [Compound 1074468]	34
1075716 (kG*k[5mC]*k[5mC]*dG*dA*dA*dA*dT*dA*d[5mC]*dT*d[5mC]*dT*k[5mC]*kA*kT; antisense) [Compound 1075716]	19
1075364 (k[5mC]*kG*kA*dA*dA*dA*dT*dA*dG*dT*dT*d[5mC]*dT*k[5mC]*kA*kA; antisense) [Compound 1075364]	59
1074276 (antisense k[5mC]*k[5mC]*kA*dA*dG*dA*dG*dG*dT*dG*dG*dT*d[5mC]*kT*kT*kG) [Compound 1074276]	87
1076260 (k[5mC]*kT*kT*dA*dA*dT*dT*dT*dA*dA*d[5mC]*dT*d[5mC]*k[5mC]*kT*kG; antisense) [Compound 1076260]	3
1074212 (antisense kG*k[5mC]*kT*dT*d[5mC]*d[5mC]*dG*dG*dA*dG*d[5mC]*d[5mC]*dT*k[5mC]*kA*kT) [Compound 1074212]	53

same assay, conditions: Table 20; Yap1 mRNA, percent of untreated control; 3-10-3 cEt gapmers targeting SEQ ID NO.: 1 and 2

Substance	YAP1 (% UTC)
1074438 (kG*kA*k[5mC]*dA*dT*dG*dA*dA*dG*d[5mC]*dA*dT*d[5mC]*kT*kG*kA; antisense) [Compound 1074438]	1* % UTC
1075654 (kT*kA*kT*dT*dA*dA*dG*dA*d[5mC]*dG*dA*dA*dT*k[5mC]*k[5mC]*kA; antisense) [Compound 1075654]	76 % UTC
1074534 (antisense kT*kA*kA*dT*dA*dG*d[5mC]*dT*d[5mC]*dT*dT*dT*d[5mC]*kT*kA*kG) [Compound 1074534]	88 % UTC
1075398 (antisense kT*kA*kT*dA*dT*dA*dT*dG*dG*d[5mC]*d[5mC]*d[5mC]*dT*kT*kT*kA) [Compound 1075398]	49 % UTC

same assay, conditions: Table 21; Yap1 mRNA, percent of untreated control; 3-10-3 cEt gapmers targeting SEQ ID NO.: 1 and 2

Substance	YAP1 (% UTC)
1074567 (antisense kA*kA*k[5mC]*d[5mC]*dT*dA*d[5mC]*dT*d[5mC]*dA*d[5mC]*dT*dG*kA*kA*kT) [Compound 1074567]	38
1076295 (kG*kT*kA*dT*dA*dT*dT*dA*dG*dT*dG*d[5mC]*d[5mC]*k[5mC]*k[5mC]*k[5mC]; antisense) [Compound 1076295]	2
1075975 (kG*kG*kA*dA*dA*dA*dA*dA*dA*dT*dT*d[5mC]*d[5mC]*kG*k[5mC]*kA; antisense) [Compound 1075975]	84
1075559 (kG*kA*kT*dA*dT*dT*dA*dA*dG*dG*dT*dG*dG*k[5mC]*kT*kT; antisense) [Compound 1075559]	24

same assay, conditions: Table 22; Yap1 mRNA as percent of untreated control; 3-10-3 cEt gapmers; single dose

Substance	YAP1 (% UTC)
1076168 (k[5mC]*kA*kA*dA*dT*dT*dT*dA*d[5mC]*dA*d[5mC]*d[5mC]*dA*k[5mC]*k[5mC]*kG; antisense) [Compound 1076168]	23
1074536 (antisense kA*kG*kT*dA*dA*dT*dA*dG*d[5mC]*dT*d[5mC]*dT*dT*kT*k[5mC]*kT) [Compound 1074536]	6
1076360 (k[5mC]*kT*kA*dT*dT*dT*dA*dT*d[5mC]*d[5mC]*dT*dA*dG*kT*kT*kA; antisense) [Compound 1076360]	59

same assay, conditions: Table 23; Yap1 mRNA as percent of untreated control; 3-10-3 cEt gapmers; single dose

Substance	YAP1 (% UTC)
1076105 (kT*kA*k[5mC]*dG*dA*dA*dA*dT*dA*dG*dT*dA*dA*k[5mC]*kT*kG; antisense) [Compound 1076105]	13
1074857 (antisense kA*k[5mC]*kA*dT*dT*dG*dG*dT*dA*d[5mC]*dT*dA*dT*kA*kT*kA) [Compound 1074857]	25
1076393 (k[5mC]*kT*kT*dT*dA*d[5mC]*dT*dT*dA*d[5mC]*dT*dG*dG*kT*kG*kG; antisense) [Compound 1076393]	4
1075369 (kG*kG*kA*dG*dA*dA*dT*dA*dA*dG*d[5mC]*dA*dA*kT*k[5mC]*kA; antisense) [Compound 1075369]	31

same assay, conditions: Table 24; Yap1 mRNA as percent of untreated control; 3-10-3 cEt gapmers targeting SEQ ID NO.: 1, and 2

Substance	YAP1 (% UTC)
1075402 (antisense kG*kA*kG*d[5mC]*dA*dA*d[5mC]*dA*d[5mC]*dA*dA*dG*d[5mC]*kA*kT*kA) [Compound 1075402]	45
1076362 (k[5mC]*k[5mC]*kA*d[5mC]*dT*dA*dA*dA*dT*dA*dA*dA*dG*k[5mC]*kA*kG; antisense) [Compound 1076362]	16
1076266 (kA*kT*kT*dA*dT*dT*dA*d[5mC]*d[5mC]*d[5mC]*dA*dA*dT*kA*kA*k[5mC]; antisense) [Compound 1076266]	72

same assay, conditions: Table 25; Yap1 mRNA as percent of untreated control; 3-10-3 cEt gapmers targeting SEQ ID NO.: 1, and 2

Substance	YAP1 (% UTC)
1074699 (antisense k[5mC]*kT*kA*dT*d[5mC]*dA*dA*dG*dG*dT*d[5mC]*d[5mC]*d[5mC]*k[5mC]*k[5mC]*kT) [Compound 1074699]	27
1075371 (k[5mC]*kT*kG*d[5mC]*dA*dA*dA*dA*dG*dT*dT*d[5mC]*dT*kT*kA*k[5mC]; antisense) [Compound 1075371]	90
1074123 (antisense kG*k[5mC]*kT*dG*d[5mC]*dG*dA*dG*dG*d[5mC]*dA*d[5mC]*dT*k[5mC]*kG*kG) [Compound 1074123]	72
1075659 (kA*kA*kG*dT*dA*dA*dA*dA*dA*dA*d[5mC]*dG*dG*kT*kT*kT; antisense) [Compound 1075659]	125
1075307 (kA*kT*kT*dA*dA*dA*d[5mC]*dG*dA*dA*dA*d[5mC]*dA*k[5mC]*kG*kG; antisense) [Compound 1075307]	28

same assay, conditions: Table 32; Yap1 mRNA, percent of untreated control; 3-10-3 cEt gapmers targeting SEQ ID NO.: 1, and 2

Substance	YAP1 (% UTC)
1074866 (kA*kA*k[5mC]*dA*dT*dA*dT*dG*dA*dG*d[5mC]*dA*dT*kG*k[5mC]*kT; antisense) [compound 1074866]	30

same assay, conditions: Table 33; Yap1 mRNA, percent of untreated control; 3-10-3 cEt gapmers targeting SEQ ID NO.: 1, and 2

Substance	YAP1 (% UTC)
1074899 (antisense kT*kA*kA*d[5mC]*dT*dT*dT*dT*dG*dG*dG*d[5mC]*dA*kA*kA*kG) [compound 1074899]	52
